Where a name gives a salt, the structure may show the parent alone.

This experiment deals with human tryptase. In words: Inhibition of human tryptase (apparent dissociation constant, chromogenic substrate tos-Gly-Pro-arg-pNA). The format is biochemical. The conditions noted are these: apparent dissociation constant in presence of substrate; heparin 0.1–50 μg/ml; equilibrium conditions; read-out: Kiapp. The source says: The documented pathophysiological effects of mast cell tryptase are caused directly by the enzymatic activity of the protease. Accordingly, they are reduced or blocked by inhibitors which inhibit the enzymatic activity of the tryptase. A suitable measure for the affinity of a reversible inhibitor to the target protease is the equilibrium dissociation constant Ki of the enzyme-inhibitor complex. This Ki value can be determined via the effect of the inhibitor on the tryptase-induced cleavage of a chromogenic peptide-p-nitroanilide substrate or a fluorogenic peptide-aminomethylcoumarin substrate.
The dissociation constants for the tryptase-inhibitor complexes are determined under equilibrium conditions in accordance with the general proposals of Bieth (Bieth J G, Pathophysiological Interpretation of kinetic constants of protease inhibitors, Bull. Europ. Physiopath. Resp. 16:183–195, 1980) and the methods of Sommerhoff et al. (Sommerhoff C P et al., A Kazal-type inhibitor of human mast cell tryptase: Isolation from the medical leech Hirudo medicinalis, characterization, and sequence analysis, Biol. Chem. Hoppe-Seyler 375: 685–694, 1994).
Human tryptase is isolated from lung tissue or prepared recombinantly; the specific activity of the protease, determined by titration, is usually greater than 85% of the theoretical value. In the presence of heparin (0.1–50 μg/ml) for stabilizing the protease, constant amounts of the tryptase are incubated with increasing amounts of the inhibitors. After an equilibrium between the reaction partners has formed, the remaining enzyme activity after addition of the peptide-p-nitroanilide substrate tos-Gly-Pro-argpNA is determined and the cleavage of the latter is monitored at 405 nm for 3 min. Alternatively, the remaining enzymatic activity can also be determined using fluorogenic substrates. The apparent dissociation constants Kiapp (i.e. in the presence of substrate) are subsequently determined by adapting the enzyme rates to the general equation for reversible inhibitors (Morrison J F, Kinetics of the reversible inhibition of enzyme-catalyzed reactions by tight-binding inhibitors, Biochim. Biophys. Acta 185, 269–286, 1969) using non-linear regression: V1/V0=1−{Et+It+Kiapp−[(Et+It+Kiapp)^2−4EtIt]^1/2}/2Et V1 and V0 are the rates in the presence and absence, respectively, of the inhibitor, and Et and It are the tryptase and inhibitor concentrations, respectively.
The apparent dissociation constants determined for the compounds according to the invention are shown in Table A below, where the numbers of the compounds correspond to the numbers of the compounds in the examples.
On to `NCC1CCC(C(=O)N2CCN(C(=O)OCC#Cc3ccc(C#CCOC(=O)N4CCN(C(=O)C5CCC(CN)CC5)CC4)cc3)CC2)CC1` (stereo not drawn) [Compound 1, 1,4-Bis[4-(trans-4-aminomethylcyclohexylcarbonyl)-1-piperazinylcarbonyl-1-oxyprop-2-ynyl]benzene Dihydrochloride], for which the Ki was 3 nM. On to `NCc1ccc(CNC(=O)N2CCN(C(=O)OCC#Cc3cccc(C#CCOC(=O)N4CCN(C(=O)NCc5ccc(CN)cc5)CC4)c3)CC2)cc1` [Compound 2, 1,3-Bis[4-(4-aminomethylbenzylaminocarbonyl)-1-piperazinylcarbonyl-1-oxyprop-2-ynyl]-benzene Dihydrochloride], for which the Ki is 10 nM. As to `NC[C@H]1CC[C@H](C(=O)N2CCN(C(=O)OCC#Cc3ccccc3C#CCOC(=O)N3CCN(C(=O)[C@H]4CC[C@H](CN)CC4)CC3)CC2)CC1` [Compound 3, 1,2-Bis[4-(trans-4-aminomethylcyclohexylcarbonyl)-1-piperazinylcarbonyl-1-oxyprop-2-ynyl]benzene Dihydrochloride], the Ki turned out to be 200 nM. For the molecule `NCc1ccc(CNC(=O)N2CCN(C(=O)OCC#Cc3ccccc3C#CCOC(=O)N3CCN(C(=O)NCc4ccc(CN)cc4)CC3)CC2)cc1` [Compound 4, 1,2-Bis[4-(4-aminomethylbenzylaminocarbonyl)-1-piperazinylcarbonyl-1-oxyprop-2-ynyl]-benzene Dihydrochloride], the Ki came out at 3 nM. For `NCc1ccc(CNC(=O)OCC#Cc2cccc(C#CCOC(=O)NCc3ccc(CN)cc3)c2)cc1` [Compound 5, 1,3-Bis-(4-aminomethylbenzylaminocarbonyl-1-oxyprop-2-ynyl)-benzene Dihydrochloride], the Ki stood at 32 nM. `NCc1ccc(CNC(=O)OCC#Cc2ccccc2C#CCOC(=O)NCc2ccc(CN)cc2)cc1` [Compound 6, 1,2-Bis-(4-aminomethylbenzylaminocarbonyl-1-oxyprop-2-ynyl)-benzene Dihydrochloride]: the Ki is 300 nM. Take `NCc1ccc(CNC(=O)OCC#Cc2cscc2C#CCOC(=O)NCc2ccc(CN)cc2)cc1` [Compound 7, 3,4-Bis-(4-aminomethylbenzylaminocarbonyl-1-oxyprop-2-ynyl)-thiophene Dihydrochloride]: the Ki was found to be 120 nM. The value for `NCc1ccc(CNC(=O)OCC#Cc2ccc(C#CCOC(=O)NCc3ccc(CN)cc3)o2)cc1` [Compound 8, 2,5-Bis-(4-aminomethylbenzylaminocarbonyl-1-oxyprop-2-ynyl)-furan Dihydrochloride] was 80 nM; that for `NCc1cccc(CNC(=O)OCC#Cc2ccc(C#CCOC(=O)NCc3cccc(CN)c3)o2)c1` [Compound 9, 2,5-Bis-(3-aminomethylbenzylaminocarbonyl-1-oxyprop-2-ynyl)-furan Dihydrochloride] was 7.5 nM; that for `NCc1cccc(CNC(=O)OCC#Cc2cscc2C#CCOC(=O)NCc2cccc(CN)c2)c1` [Compound 10, 3,4-Bis-(3-aminomethylbenzylaminocarbonyl-1-oxyprop-2-ynyl)-thiophene Dihydrochloride] was 150 nM.

Turning to `NCc1ccc(CNC(=O)COCC#Cc2ccc(C#CCOCC(=O)NCc3ccc(CN)cc3)cc2)cc1` [Compound 11, 1,4-Bis-(4-aminomethylbenzylaminocarbonylmethyl-1-oxyprop-2-ynyl)-benzene Dihydrochloride], the Ki is 30 nM. For `NCc1ccc(CNC(=O)COCC#Cc2cccc(C#CCOCC(=O)NCc3ccc(CN)cc3)c2)cc1` [Compound 12, 1,3-Bis-(4-aminomethylbenzylaminocarbonylmethyl-1-oxyprop-2-ynyl)-benzene Dihydrochloride], the Ki was found to be 13 nM. `NCc1ccc(CC(=O)C#CC(N)c2ccc(C(N)C#CC(=O)Cc3ccc(CN)cc3)cc2)cc1` (centres unmarked) [Compound 13, 1,4-Bis-(4-aminomethylbenzylcarbonyl-1-aminoprop-2-ynyl)-benzene Dihydrochloride]: the Ki stood at 130 nM. Take `NCc1ccc(CC(=O)C#CC(N)c2ccccc2C(N)C#CC(=O)Cc2ccc(CN)cc2)cc1` (centres unmarked) [Compound 14, 1,2-Bis-(4-aminomethylbenzylcarbonyl-1-aminoprop-2-ynyl)-benzene Dihydrochloride]: the Ki was found to be 330 nM.

(Values after US6960588B1, “Tryptase inhibitors” (Altana Pharma AG, priority 1999, dated 2005).)
